Laboratory results published in patent US11236069B2, “KIF18A inhibitors” (AMGEN INC., priority 2018, dated 2022).
pIC50: −log10 of the molar value.

What follows are compounds tested against Recombinant human KIF18A (1-467 His-tagged) protein (Homo sapiens (Human), UniProt Q8NI77) (assay: KIF18A Enzyme Assay: microtubule-stimulated ATPase activity (ADP-Glo)). Conditions: read-out: KIF18A ATPase IC50; 30 nM KIF18A, 30 μg/mL pig microtubules, ATP at Km 75 μM, ADP-Glo luminescence.
Sequence of Recombinant human KIF18A (1-467 His-tagged) protein (Q8NI77 1-467): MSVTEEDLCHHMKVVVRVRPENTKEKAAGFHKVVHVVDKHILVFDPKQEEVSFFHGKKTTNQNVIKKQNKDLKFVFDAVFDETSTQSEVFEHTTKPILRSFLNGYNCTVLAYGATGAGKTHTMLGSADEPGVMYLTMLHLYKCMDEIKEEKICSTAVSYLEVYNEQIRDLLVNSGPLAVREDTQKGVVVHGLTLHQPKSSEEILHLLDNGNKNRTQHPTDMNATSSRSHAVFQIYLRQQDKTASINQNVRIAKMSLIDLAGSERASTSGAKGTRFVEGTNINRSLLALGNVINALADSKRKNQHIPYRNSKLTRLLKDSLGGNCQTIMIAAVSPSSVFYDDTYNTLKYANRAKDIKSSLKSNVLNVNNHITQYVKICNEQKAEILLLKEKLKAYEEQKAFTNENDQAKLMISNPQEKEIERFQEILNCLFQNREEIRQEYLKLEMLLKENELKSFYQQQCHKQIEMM
Sequence of Recombinant human KIF18A (1-467 His-tagged) protein (P02550 whole entry partner): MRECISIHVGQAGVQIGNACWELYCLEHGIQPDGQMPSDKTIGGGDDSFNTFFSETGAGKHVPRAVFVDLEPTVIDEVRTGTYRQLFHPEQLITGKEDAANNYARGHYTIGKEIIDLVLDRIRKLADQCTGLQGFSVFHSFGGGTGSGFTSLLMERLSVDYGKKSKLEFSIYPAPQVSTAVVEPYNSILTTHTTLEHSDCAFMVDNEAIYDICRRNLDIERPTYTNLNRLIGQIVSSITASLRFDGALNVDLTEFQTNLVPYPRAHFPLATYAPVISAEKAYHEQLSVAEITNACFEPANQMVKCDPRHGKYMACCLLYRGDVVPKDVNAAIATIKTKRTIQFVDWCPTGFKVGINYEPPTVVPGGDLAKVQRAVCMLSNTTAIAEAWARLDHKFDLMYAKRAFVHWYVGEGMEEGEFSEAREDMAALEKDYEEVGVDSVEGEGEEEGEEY
Sequence of Recombinant human KIF18A (1-467 His-tagged) protein (P02554 whole entry partner): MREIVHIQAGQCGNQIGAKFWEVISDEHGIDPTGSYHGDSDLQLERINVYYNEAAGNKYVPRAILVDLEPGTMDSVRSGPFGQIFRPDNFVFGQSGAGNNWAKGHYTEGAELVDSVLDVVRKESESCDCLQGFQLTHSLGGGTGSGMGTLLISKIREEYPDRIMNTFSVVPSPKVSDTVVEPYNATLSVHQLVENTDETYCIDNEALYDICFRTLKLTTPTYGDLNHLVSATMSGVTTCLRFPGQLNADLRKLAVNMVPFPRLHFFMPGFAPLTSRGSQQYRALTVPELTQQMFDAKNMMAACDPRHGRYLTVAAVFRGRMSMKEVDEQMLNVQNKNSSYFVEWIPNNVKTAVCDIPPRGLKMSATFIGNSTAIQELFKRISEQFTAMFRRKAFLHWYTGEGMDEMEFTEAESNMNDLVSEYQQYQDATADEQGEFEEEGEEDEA
Description: KIF18A Enzyme Assay: Microtubule-stimulated ATPase activity assay is used to measure KIF18A enzyme activity after treatment with compound. Compounds were 2-fold serially diluted in DMSO (Sigma Inc) over 22-point concentration range. […] The assay measures ADP formed from the ATPase reaction.

| pIC50 | SMILES |
| --- | --- |
| 6.90 | Cc1cc(NC(=O)c2ccc(NS(=O)(=O)CCO)cc2N2CCC(C)(C)CC2)nc(N2CCC(F)(F)CC2)n1 [Example 11-41, N-(2-(4,4-Difluoropiperidin-1-yl)-6-methylpyrimidin-4-yl)-2-(4,4-dimethylpiperidin-1-yl)-4-((2-hydroxyethyl)sulfonamido)benzamide] |
| 7.47 | Cc1cc(NC(=O)c2ccc(NS(=O)(=O)CCO)cc2N2CCC3(CC2)CC3)nc(N2CCC3C[C@]3(O)C2)n1 (stereo partly drawn) [Example 11-42, N-(2-((1R)-1-Hydroxy-3-azabicyclo[4.1.0]heptan-3-yl)-6-methylpyrimidin-4-yl)-4-((2-hydroxyethyl)sulfonamido)-2-(6-azaspiro[2.5]octan-6-yl)benzamide] |
| 7.46 | Cc1cc(NC(=O)c2ccc(NS(=O)(=O)CCO)cc2N2CCC3(CC2)CC3)nc(N2CC[C@H]3C[C@H]3C2)n1 [Example 11-43, N-(2-((1R,6R)-3-Azabicyclo[4.1.0]heptan-3-yl)-6-methylpyrimidin-4-yl)-4-((2-hydroxyethyl)sulfonamido)-2-(6-azaspiro[2.5]octan-6-yl)benzamide] |
| 7.48 | Cc1cc(NC(=O)c2ccc(NS(=O)(=O)CCO)cc2N2CCC3(CC2)CC3)nc(N2CCC[C@@H]3C[C@@H]32)n1 [Example 11-44, N-(2-((1S,6R)-2-Azabicyclo[4.1.0]heptan-2-yl)-6-methylpyrimidin-4-yl)-4-((2-hydroxyethyl)sulfonamido)-2-(6-azaspiro[2.5]octan-6-yl)benzamide] |
| 7.46 | Cc1cc(NC(=O)c2ccc(NS(=O)(=O)CCO)cc2N2CCC3(CC2)CC3)nc(N2CCO[C@@H](C)C2)n1 [Example 11-45, (S)-4-((2-Hydroxyethyl)sulfonamido)-N-(6-methyl-2-(2-methylmorpholino)pyrimidin-4-yl)-2-(6-azaspiro[2.5]octan-6-yl)benzamide] |
| 6.82 | Cc1cc(NC(=O)c2ccc(NS(=O)(=O)CCO)cc2N2CCC3(CC2)CC3)nc(N2CCOC(C)(C)C2)n1 [Example 11-46, N-(2-(2,2-Dimethylmorpholino)-6-methylpyrimidin-4-yl)-4-((2-hydroxyethyl)sulfonamido)-2-(6-azaspiro[2.5]octan-6-yl)benzamide] |
| 7.02 | Cc1cc(NC(=O)c2ccc(NS(=O)(=O)CCO)cc2N2CCC3(CC2)CC3)nc(N2CCOC3(CC3)C2)n1 [Example 11-47, 4-((2-Hydroxyethyl)sulfonamido)-N-(6-methyl-2-(4-oxa-7-azaspiro[2.5]octan-7-yl)pyrimidin-4-yl)-2-(6-azaspiro[2.5]octan-6-yl)benzamide] |
| 7.02 | Cc1cc(NC(=O)c2ccc(NS(=O)(=O)CCO)cc2N2CCC3(CC2)CC3)nc(N2[C@H](C)COC[C@@H]2C)n1 [Example 11-48, N-(2-((3S,5R)-3,5-Dimethylmorpholino)-6-methylpyrimidin-4-yl)-4-((2-hydroxyethyl)sulfonamido)-2-(6-azaspiro[2.5]octan-6-yl)benzamide] |
| 6.61 | Cc1cc(NC(=O)c2ccc(NS(=O)(=O)CCO)cc2N2CCC3(CC2)CC3)nc(N2[C@@H](C)COC[C@@H]2C)n1 [Example 11-49, N-(2-((3S,5S)-3,5-Dimethylmorpholino)-6-methylpyrimidin-4-yl)-4-((2-hydroxyethyl)sulfonamido)-2-(6-azaspiro[2.5]octan-6-yl)benzamide] |
| 6.73 | Cc1cc(NC(=O)c2ccc(NS(=O)(=O)CCO)cc2N2CCC3(CC2)CC3)nc(N2[C@H](C)COC[C@H]2C)n1 [Example 11-50, N-(2-((3R,5R)-3,5-Dimethylmorpholino)-6-methylpyrimidin-4-yl)-4-((2-hydroxyethyl)sulfonamido)-2-(6-azaspiro[2.5]octan-6-yl)benzamide] |
| 7.70 | Cc1cc(NC(=O)c2ccc(NS(=O)(=O)CCO)cc2N2CCC3(CC2)CC3)nc(N2CCC(F)CC2)n1 [Example 11-51, N-(2-(4-Fluoropiperidin-1-yl)-6-methylpyrimidin-4-yl)-4-((2-hydroxyethyl)sulfonamido)-2-(6-azaspiro[2.5]octan-6-yl)benzamide] |
| 7.20 | Cc1cc(NC(=O)c2ccc(NS(=O)(=O)CCO)cc2N2CCC3(CC2)CC3)nc(N2CCC(C)(F)CC2)n1 [Example 11-52, N-(2-(4-Fluoro-4-methylpiperidin-1-yl)-6-methylpyrimidin-4-yl)-4-((2-hydroxyethyl)sulfonamido)-2-(6-azaspiro[2.5]octan-6-yl)benzamide] |
| 6.98 | Cc1cc(NC(=O)c2ccc(NS(=O)(=O)CCO)cc2N2CCC3(CC2)CC3)nc(N2CCC[C@H](O)C2)n1 [Example 11-53, (S)-4-((2-Hydroxyethyl)sulfonamido)-N-(2-(3-hydroxypiperidin-1-yl)-6-methylpyrimidin-4-yl)-2-(6-azaspiro[2.5]octan-6-yl)benzamide] |
| 7.13 | Cc1cc(NC(=O)c2ccc(NS(=O)(=O)CCO)cc2N2CCC3(CC2)CC3)nc(N2CCC[C@@H](O)C2)n1 [Example 11-54, (R)-4-((2-Hydroxyethyl)sulfonamido)-N-(2-(3-hydroxypiperidin-1-yl)-6-methylpyrimidin-4-yl)-2-(6-azaspiro[2.5]octan-6-yl)benzamide] |
| 7.39 | Cc1cc(NC(=O)c2ccc(NS(=O)(=O)CCO)cc2N2CCC3(CC2)CC3)nc(N2CCC[C@@](C)(F)C2)n1 [Example 11-55, (R)-N-(2-(3-Fluoro-3-methylpiperidin-1-yl)-6-methylpyrimidin-4-yl)-4-((2-hydroxyethyl)sulfonamido)-2-(6-azaspiro[2.5]octan-6-yl)benzamide] |
| 7.66 | O=C(Nc1ccnc(N2CCC(F)CC2)n1)c1ccc(NS(=O)(=O)CCO)cc1N1CCC2(CC1)CC2 [Example 11-56, N-(2-(4-Fluoropiperidin-1-yl)pyrimidin-4-yl)-4-((2-hydroxyethyl)sulfonamido)-2-(6-azaspiro[2.5]octan-6-yl)benzamide] |
| 7.66 | O=C(Nc1ccnc(N2CCC(F)(F)CC2)n1)c1ccc(NS(=O)(=O)CCO)cc1N1CCC2(CC1)CC2 [Example 11-57, N-(2-(4,4-Difluoropiperidin-1-yl)pyrimidin-4-yl)-4-((2-hydroxyethyl)sulfonamido)-2-(6-azaspiro[2.5]octan-6-yl)benzamide] |
| 7.15 | Cc1cc(NC(=O)c2c(F)cc(NS(=O)(=O)CCO)cc2N2CCC3(CC2)CC3)nc(N2CCC(F)(F)CC2)n1 [Example 11-58, N-(2-(4,4-Difluoropiperidin-1-yl)-6-methylpyrimidin-4-yl)-2-fluoro-4-((2-hydroxyethyl)sulfonamido)-6-(6-azaspiro[2.5]octan-6-yl)benzamide] |
| 7.24 | O=C(Nc1ccnc(OCCC(F)(F)F)c1)c1ccc(NS(=O)(=O)CCO)cc1N1CCC2(CC1)CC2 [Example 11-59, 4-((2-Hydroxyethyl)sulfonamido)-2-(6-azaspiro[2.5]octan-6-yl)-N-(2-(3,3,3-trifluoropropoxy)pyridin-4-yl)benzamide] |
| 7.08 | Cc1cc(NC(=O)c2ccc(NS(=O)(=O)CCO)cc2N2CCC3(CC2)CC3)cc(OCCC(F)(F)F)n1 [Example 11-60, 4-((2-Hydroxyethyl)sulfonamido)-N-(2-methyl-6-(3,3,3-trifluoropropoxy)pyridin-4-yl)-2(6-azaspiro[2.5]octan-6-yl)benzamide] |
| 7.15 | Cc1cc(NC(=O)c2ccc(NS(=O)(=O)CCO)cc2N2CCC3(CC2)CC3)nc(OCCC(F)(F)F)n1 [Example 11-61, 4-((2-Hydroxyethyl)sulfonamido)-N-(6-methyl-2-(3,3,3-trifluoropropoxy)pyrimidin-4-yl)-2-(6-azaspiro[2.5]octan-6-yl)benzamide] |
| 7.74 | Cc1cc(NC(=O)c2ccc(NS(=O)(=O)CCO)cc2N2CCC3(CC2)CC3)nc(NC(C)(C)CO)n1 [Example 11-62, N-(2-((1-Hydroxy-2-methylpropan-2-yl)amino)-6-methylpyrimidin-4-yl)-4-((2-hydroxyethyl)sulfonamido)-2-(6-azaspiro[2.5]octan-6-yl)benzamide] |
| 7.66 | O=C(Nc1ccnc(N2CCC(F)(F)CC2)c1F)c1ccc(NS(=O)(=O)CCO)cc1N1CCC2(CC1)CC2 [Example 11-63, N-(2-(4,4-Difluoropiperidin-1-yl)-3-fluoropyridin-4-yl)-4((2-hydroxyethyl)sulfonamido)-2-(6-azaspiro[2.5]octan-6-yl)benzamide] |
| 7.27 | Cc1cc(NC(=O)c2ccc(NS(=O)(=O)CCO)cc2N2CCC3(CC2)CC3)c(F)c(N2CCC(F)(F)CC2)n1 [Example 11-64, N-(2-(4,4-Difluoropiperidin-1-yl)-3-fluoro-6-methylpyridin-4-yl)-4-((2-hydroxyethyl)sulfonamido)-2-(6-azaspiro[2.5]octan-6-yl)benzamide] |
| 6.82 | C[C@@H]1CN(c2cc(NC(=O)c3ccc(NS(=O)(=O)CCO)cc3N3CCC4(CC3)CC4)ccn2)CCO1 [Example 11-65] |
| 6.83 | Cc1cc(NC(=O)c2ccc(NS(=O)(=O)CCO)cc2N2CCC3(CC2)CC3)cc(N2CCO[C@H](C)C2)n1 [Example 11-66] |
| 7.47 | Cc1cc(NC(=O)c2cc(F)c(NS(=O)(=O)CCO)cc2N2CCC3(CC2)CC3)nc(N2CCC(F)(F)CC2)n1 [Example 11-67, N-(2-(4,4-Difluoropiperidin-1-yl)-6-methylpyrimidin-4-yl)-5-fluoro-4-((2-hydroxyethyl)sulfonamido)-2-(6-azaspiro[2.5]octan-6-yl)benzamide] |
| 7.28 | Cc1cc(NC(=O)c2ccc(NS(=O)(=O)C3(CO)CC3)cc2N2CCC3(CC2)CC3)nc(N2CC(F)(F)C2)n1 [Example 11-68, N-(2-(3,3-Difluoroazetidin-1-yl)-6-methylpyrimidin-4-yl)-4-((1-(hydroxymethyl)cyclopropane)-1-sulfonamido)-2-(6-azaspiro[2.5]octan-6-yl)benzamide] |
| 7.00 | Cc1cc(NC(=O)c2ccc(NS(=O)(=O)C3(CO)CC3)cc2N2CCC3(CC2)CC3)nc(N2CCC(F)(F)CC2)n1 [Example 11-69] |
| 7.14 | Cc1cc(NC(=O)c2ccc(NS(=O)(=O)[C@H]3CCOC3)cc2N2CCC3(CC2)CC3)nc(N2CC(F)(F)C2)n1 [Example 11-70, (S)-N-(2-(3,3-Difluoroazetidin-1-yl)-6-methylpyrimidin-4-yl)-2-(6-azaspiro[2.5]octan-6-yl)-4-((tetrahydrofuran)-3-sulfonamido)benzamide] |
